Columns and labels:
[1] = test system: B16 melanoma 4A5 cells; assay: Theophylline-stimulated melanogenesis inhibition (melanin content); type: cell-based, murine; conditions: Mus musculus, 72 h; for IC50: theophylline (1 mM)-stimulated B16 melanoma 4A5 cells
Description: (§1) The effects on theophylline-stimulated melanogenesis and viability of B16 melanoma 4A5 cells were examined according to previously described protocols. Briefly, murine B16 melanoma 4A5 cells were seeded into 48-well plates in DMEM. After 24 h of culture, a test compound and theophylline (1 mM) were added and incubated for 72 h. The melanin content and cell viability were then measured. IC50 values were determined graphically.
Inhibition (%) was calculated using the following formula, where A and B indicate the optical density of the vehicle- and test compound-treated groups, respectively, and C indicates cell viability (%) (see below): Inhibition (%) = [(A − B)/A]/(C/100) × 100.

[2] = Cell viability of B16 melanoma 4A5 cells; type: cell-based, murine; conditions: mouse, B16 4A5 cells
Description: as §1

[3] = test system: tyrosinase from mushroom; assay: Mushroom tyrosinase activity; type: biochemical
Description: Tyrosinase activities using L-tyrosine or L-DOPA as a substrate were determined according to the protocols described previously. Briefly, samples, L-tyrosine (2.5 mM, or L-DOPA, 3.0 mM), mushroom tyrosinase (46 units/mL), and phosphate buffer were mixed in a 96-well plate and incubated at 25 °C. (L-tyrosine; 30 min, L-DOPA; 5 min). The absorbance was then measured at 492 nm.

[4] = theophylline-stimulated B16 4A5 cells

| Compound | inhibition at 3 µM [1, 4] | inhibition at 10 µM [1, 4] | inhibition at 30 µM [1, 4] | inhibition at 100 µM [1, 4] | IC50 [1] | viability at 72 h, 3 µM [2] | viability at 72 h, 10 µM [2] | viability at 72 h, 30 µM [2] | viability at 72 h, 100 µM [2] | Inhibition (%) of mushroom tyrosinase ([3]; Substrate: L-DOPA, 30 µM) | Inhibition (%) of mushroom tyrosinase ([3]; Substrate: L-DOPA, 100 µM) | Inhibition (%) of mushroom tyrosinase ([3]; Substrate: L-Tyrosine, 30 µM) | Inhibition (%) of mushroom tyrosinase ([3]; Substrate: L-Tyrosine, 100 µM) | Inhibition (%) of mushroom tyrosinase ([3]; Substrate: L-DOPA, 10 µM) | Inhibition (%) of mushroom tyrosinase ([3]; Substrate: L-Tyrosine, 10 µM) | also measured |
| --- | --- | --- | --- | --- | --- | --- | --- | --- | --- | --- | --- | --- | --- | --- | --- | --- |
| CCCCCCCOC1=C(OCC(O)CO)[C@@H]([C@@H](O)CO)OC1=O (stereo partly shown) [compound 7, 3-O-(2,3-dihydroxypropyl)-2-O-heptyl-AsA] | -4.2 ± 6.3% | 3.4 ± 5.2% | 20 ± 6.4% | 52.2 ± 5% | 89.1 µM | 101% | 95.4% | 91.9% | 79.7% | −0.7 ± 3.1% | 1.1 ± 4.8% | −1.7 ± 4.0% | 1.0 ± 2.4% | – | – | – |
| CCCCCCCCOC1=C(OCC(O)CO)[C@@H]([C@@H](O)CO)OC1=O (stereo partly shown) [compound 8, 3-O-(2,3-dihydroxypropyl)-2-O-octyl-AsA] | 5.7 ± 6.9% | 10.6 ± 4.6% | 22.4 ± 4.4% | 64.1 ± 8.2% | 68.8 µM | 108% | 103% | 92.5% | 80% | 2.4 ± 1.1% | 2.3 ± 2.7% | −0.3 ± 2.3% | −0.6 ± 4.3% | – | – | – |
| CCCCCCCCCOC1=C(OCC(O)CO)[C@@H]([C@@H](O)CO)OC1=O (stereo partly shown) [compound 9, 3-O-(2,3-dihydroxypropyl)-2-O-nonyl-AsA] | 0.2 ± 4.4% | 19.1 ± 1.3% | 51.9 ± 4.6% | 91.6 ± 1.2% | 28.8 µM | 99.2% | 88.9% | 77.6% | 58.4% | 4.8 ± 6.6% | 0.9 ± 6.0% | 4.0 ± 6.1% | −1.2 ± 4.5% | – | – | – |
| CCCCCCCCCCOC1=C(OCC(O)CO)[C@@H]([C@@H](O)CO)OC1=O (stereo partly shown) [compound 10, 2-O-decyl-3-O-(2,3-dihydroxypropyl)-AsA] | 3.7 ± 7.8% | 39.2 ± 4.1% | 78.1 ± 4.8% | 98 ± 3.7% | 13 µM | 98.6% | 85.9% | 73.5% | 27.9% | 2.4 ± 2.9% | – | 0.4 ± 1.7% | – | 0.4 ± 1.1% | 1.3 ± 3.1% | – |
| CCCCCCCCCCCOC1=C(OCC(O)CO)[C@@H]([C@@H](O)CO)OC1=O (stereo partly shown) [compound 11, 3-O-(2,3-dihydroxypropyl)-2-O-undecyl-AsA] | 12.4 ± 3% | 35.4 ± 2.8% | 89.3 ± 1.5% | 100 ± 4.7% | 15.1 µM | 106% | 90.8% | 69% | 25.8% | −5.1 ± 2.2% | – | 1.0 ± 2.5% | – | −4.6 ± 1.4% | 2.9 ± 3.9% | – |
| CCCCCCCCCCCCOC1=C(OCC(O)CO)[C@@H]([C@@H](O)CO)OC1=O (stereo partly shown) [compound 12, 3-O-(2,3-dihydroxypropyl)-2-O-dodecyl-AsA] | 20.4 ± 10.2% | 50 ± 5.7% | 96 ± 2.9% | 97.9 ± 4.2% | 10.6 µM | 112% | 104% | 73.3% | 24.6% | −4.6 ± 2.2% | – | −7.1 ± 1.4% | – | −3.1 ± 3.3% | −0.7 ± 4.5% | – |
| CCCCCCCCCCCCCOC1=C(OCC(O)CO)[C@@H]([C@@H](O)CO)OC1=O (stereo partly shown) [compound 13, 3-O-(2,3-dihydroxypropyl)-2-O-tridecyl-AsA] | 0.1 ± 8.6% | 46 ± 7.9% | 97.1 ± 2.3% | 108 ± 9.1% | 11.3 µM | 96.3% | 87.2% | 63.7% | 23.5% | −4.4 ± 1.8% | – | −7.1 ± 1.7% | – | −4.7 ± 5.0% | −4.7 ± 2.9% | – |
| CCCCCOC1=C(OCC(O)CO)C(=O)O[C@@H]1[C@@H](O)CO (stereo partly shown) [compound 19, 2-O-(2,3-dihydroxypropyl)-3-O-pentyl-AsA] | – | – | – | 14 ± 4.4% | 283 µM | – | – | – | 86.7% | – | – | – | – | – | – | inhibition at 300 µM ([1]; 300 µM, theophylline-stimulated B16 4A5 cells): 53 ± 1.1%; inhibition at 1000 µM ([1]; 1000 µM, theophylline-stimulated B16 4A5 cells): 83.1 ± 1.4%; inhibition at 3000 µM ([1]; 3000 µM, theophylline-stimulated B16 4A5 cells): 97.1 ± 0.9%; viability at 72 h, 300 µM ([2]; 300 µM): 73.4%; viability at 72 h, 1000 µM ([2]; 1000 µM): 54.7%; viability at 72 h, 3000 µM ([2]; 3000 µM): 22.5% |
| CCCCCCCOC1=C(OCC(O)CO)C(=O)O[C@@H]1[C@@H](O)CO (stereo partly shown) [compound 21, 2-O-(2,3-dihydroxypropyl)-3-O-heptyl-AsA] | -6.3 ± 2.7% | 0.9 ± 8.2% | 21 ± 5% | 44.6 ± 6.2% | > 100 µM | 97.9% | 92.7% | 92.7% | 86.3% | −10.0 ± 1.7% | −11.3 ± 2.4% | −9.2 ± 2.1% | −9.8 ± 3.9% | – | – | – |
| CCCCCCCCOC1=C(OCC(O)CO)C(=O)O[C@@H]1[C@@H](O)CO (stereo partly shown) [compound 22, 2-O-(2,3-dihydroxypropyl)-3-O-octyl-AsA] | -10.4 ± 6% | 1 ± 7% | 2.3 ± 5.9% | 34.8 ± 8.2% | > 100 µM | 98.8% | 99.3% | 91.6% | 83% | −13.1 ± 3.3% | −4.5 ± 2.0% | −11.5 ± 1.6% | −14.4 ± 1.8% | – | – | – |
| CCCCCCCCCOC1=C(OCC(O)CO)C(=O)O[C@@H]1[C@@H](O)CO (stereo partly shown) [compound 23, 2-O-(2,3-dihydroxypropyl)-3-O-nonyl-AsA] | -1.3 ± 9.4% | -2.6 ± 8% | 14.9 ± 5.6% | 77.1 ± 2.4% | 72.9 µM | 96.6% | 90.6% | 81.2% | 60.7% | −4.1 ± 2.2% | −1.5 ± 2.2% | −5.0 ± 3.1% | −2.6 ± 2.4% | – | – | – |

— PMC5979531, “Structural Requirements of Alkylglyceryl-L-Ascorbic Acid Derivatives for Melanogenesis Inhibitory Activity” (International Journal of Molecular Sciences, 2018)
